Data: ChEMBL document CHEMBL1914295, “Synthesis and biological evaluation of some novel triazol-3-ones as antimicrobial agents” (2011)

Key:
Assay type in all cases: functional
Conditions in all cases: read-out: IZ
[1] = system: Staphylococcus aureus; assay: Antibacterial activity against Staphylococcus aureus at 200 ug/ml after 24 hrs by disc diffusion method
[2] = system: Bacillus subtilis; assay: Antibacterial activity against Bacillus subtilis at 100 ug/ml after 24 hrs by disc diffusion method
[3] = system: Staphylococcus aureus; assay: Antibacterial activity against Staphylococcus aureus at 100 ug/ml after 24 hrs by disc diffusion method
[4] = system: Bacillus subtilis; assay: Antibacterial activity against Bacillus subtilis at 200 ug/ml after 24 hrs by disc diffusion method
[5] = system: Escherichia coli; assay: Antibacterial activity against Escherichia coli at 100 ug/ml after 24 hrs by disc diffusion method
[6] = system: Escherichia coli; assay: Antibacterial activity against Escherichia coli at 200 ug/ml after 24 hrs by disc diffusion method
[7] = system: Klebsiella pneumoniae; assay: Antibacterial activity against Klebsiella pneumoniae at 100 ug/ml after 24 hrs by disc diffusion method
[8] = system: Klebsiella pneumoniae; assay: Antibacterial activity against Klebsiella pneumoniae at 200 ug/ml after 24 hrs by disc diffusion method
[9] = system: Fusarium solani; assay: Antifungal activity against Fusarium solani at 100 ug/ml after 48 hrs by disc diffusion method
[10] = system: Fusarium solani; assay: Antifungal activity against Fusarium solani at 200 ug/ml after 48 hrs by disc diffusion method
[11] = system: Aspergillus niger; assay: Antifungal activity against Aspergillus niger at 100 ug/ml after 48 hrs by disc diffusion method
[12] = system: Aspergillus niger; assay: Antifungal activity against Aspergillus niger at 200 ug/ml after 48 hrs by disc diffusion method
[13] = system: Candida albicans; assay: Antifungal activity against Candida albicans at 100 ug/ml after 48 hrs by disc diffusion method
[14] = system: Candida albicans; assay: Antifungal activity against Candida albicans at 200 ug/ml after 48 hrs by disc diffusion method

SMILES | zone of inhibition at 200 µg/mL [1] | zone of inhibition at 100 µg/mL [2] | zone of inhibition at 100 µg/mL [3] | zone of inhibition at 200 µg/mL [4] | zone of inhibition at 100 µg/mL [5] | zone of inhibition at 200 µg/mL [6] | zone of inhibition at 100 µg/mL [7] | zone of inhibition at 200 µg/mL [8] | zone of inhibition at 100 µg/mL [9] | zone of inhibition at 200 µg/mL [10] | zone of inhibition at 100 µg/mL [11] | zone of inhibition at 200 µg/mL [12] | zone of inhibition at 100 µg/mL [13] | zone of inhibition at 200 µg/mL [14]
CC(C)Cn1ncn(-c2nc(-c3ccsc3)cs2)c1=O | 20 mm | 16 mm | 16 mm | 18 mm | 17 mm | 21 mm | 15 mm | 18 mm | 26 mm | 30 mm | 26 mm | 27 mm | 17 mm | 21 mm
CC1Sc2sccc2-c2nc(-n3cn[nH]c3=O)sc21 (stereo not given) | 21 mm | 20 mm | 18 mm | 23 mm | 15 mm | 20 mm | 17 mm | 20 mm | 22 mm | 24 mm | 26 mm | 29 mm | 25 mm | 28 mm
N#CCn1ncn(-c2nc(-c3ccsc3)cs2)c1=O | 31 mm | 23 mm | 28 mm | 26 mm | 26 mm | 29 mm | 16 mm | 21 mm | 28 mm | 34 mm | 27 mm | 29 mm | 28 mm | 32 mm
CC(C)n1ncn(-c2nc(-c3ccsc3)cs2)c1=O | 27 mm | 20 mm | 25 mm | 23 mm | 22 mm | 24 mm | 26 mm | 29 mm | 27 mm | 29 mm | 30 mm | 33 mm | 22 mm | 24 mm
CC(C)Cn1ncn(-c2nc3c(s2)C(C)Sc2sccc2-3)c1=O (stereo not given) | 15 mm | 13 mm | 12 mm | 16 mm | 12 mm | 14 mm | 10 mm | 12 mm | 16 mm | 20 mm | 16 mm | 18 mm | 17 mm | 21 mm
Cn1ncn(-c2nc(-c3ccsc3)cs2)c1=O | 35 mm | 34 mm | 32 mm | 36 mm | 23 mm | 25 mm | 26 mm | 28 mm | 40 mm | 43 mm | 39 mm | 42 mm | 36 mm | 40 mm
CCn1ncn(-c2nc3c(s2)C(C)Sc2sccc2-3)c1=O (stereo not given) | 29 mm | 28 mm | 25 mm | 31 mm | 22 mm | 27 mm | 24 mm | 26 mm | 28 mm | 31 mm | 23 mm | 26 mm | 26 mm | 29 mm
O=C(N[C@H](CO)[C@H](O)c1ccc([N+](=O)[O-])cc1)C(Cl)Cl [CHLORAMPHENICOL] | 39 mm | 38 mm | 35 mm | 41 mm | 40 mm | 44 mm | 42 mm | 45 mm |  |  |  |  |  | 
CCn1ncn(-c2nc(-c3ccsc3)cs2)c1=O | 32 mm | 21 mm | 24 mm | 27 mm | 23 mm | 29 mm | 26 mm | 28 mm | 29 mm | 32 mm | 21 mm | 24 mm | 23 mm | 29 mm
CC1Sc2sccc2-c2nc(-n3cnn(C)c3=O)sc21 (stereo not given) | 16 mm | 16 mm | 14 mm | 19 mm | 18 mm | 21 mm | 16 mm | 19 mm | 24 mm | 26 mm | 20 mm | 23 mm | 22 mm | 24 mm
CC1Sc2sccc2-c2nc(-n3cnn(C(C)C)c3=O)sc21 (stereo not given) | 16 mm | 13 mm | 14 mm | 15 mm | 15 mm | 18 mm | 14 mm | 16 mm | 17 mm | 19 mm | 17 mm | 22 mm | 16 mm | 21 mm
O=c1[nH]ncn1-c1nc(-c2ccsc2)cs1 | 28 mm | 27 mm | 25 mm | 29 mm | 24 mm | 26 mm | 22 mm | 26 mm | 32 mm | 37 mm | 34 mm | 39 mm | 35 mm | 38 mm
COCCCn1ncn(-c2nc3c(s2)C(C)Sc2sccc2-3)c1=O (stereo not given) | 28 mm | 31 mm | 23 mm | 33 mm | 22 mm | 25 mm | 21 mm | 24 mm | 39 mm | 44 mm | 37 mm | 41 mm | 36 mm | 39 mm
COCCCn1ncn(-c2nc(-c3ccsc3)cs2)c1=O | 26 mm | 23 mm | 24 mm | 26 mm | 24 mm | 28 mm | 25 mm | 28 mm | 34 mm | 36 mm | 26 mm | 28 mm | 24 mm | 28 mm
CC1Sc2sccc2-c2nc(-n3cnn(CC#N)c3=O)sc21 (stereo not given) | 17 mm | 15 mm | 13 mm | 18 mm | 11 mm | 13 mm | 11 mm | 14 mm | 15 mm | 18 mm | 16 mm | 19 mm | 14 mm | 18 mm
CC(=O)N1CCN(c2ccc(OCC3COC(Cn4ccnc4)(c4ccc(Cl)cc4Cl)O3)cc2)CC1 (stereo not given) [KETOCONAZOLE] |  |  |  |  |  |  |  |  | 38 mm | 42 mm | 41 mm | 44 mm | 36 mm | 39 mm
